# Assay results as given in patent publication US8030354B2, “Substituted biphenyl GPR40 modulators” (Amgen Inc., priority 2007, dated 2011).
# How the values were obtained:
# [1] = target: T1, GPR40 (Homo sapiens, UniProt O14842); test: Cell-based aequorin assay (CHO cells stably expressing GPR40 and aequorin); set-up: expressed in transfected cells; host or cells: CHO cells stably transfected with GPR40 and aequorin; details: activation of human GPR40, CHO cells, 0.01% HSA
# Method in brief: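 CHO cells stably co-expressing GPR40 and aequorin, loaded with coelenterazine (1 ug/mL, 2 h, room temperature) in H/HBSS with 20 mM Hepes and 0.01% fatty acid-free HSA. Serially diluted compounds added; luminescence recorded over 20 s. EC50 from dose-response of maximum relative light units.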
# [2] = target: T1, GPR40; test: Inositol phosphate accumulation assay (A9_GPR40 cells); format: cell-based; set-up: expressed in transfected cells; host or cells: CHO cells stably transfected with GPR40 and aequorin; details: inositol phosphate assay, A9_GPR40 cells, 1 hour; read-out: IP3 EC50
# Description: Briefly, the Aequorin assays were performed on doubly stable CHO cells expressing GPR40 and Aequorin DNA. […] The luminescence was recorded over a period of 20 seconds with a Microlumat luminometer (Berthold). […] The inositol phosphate assay was performed on an A9 cell line stably transfected with GPR40 (A9_GPR40). The cells were incubated with different concentrations of compounds and [^3H] inositol accumulation was measured after 1 hour.
# An A9 cell line stably transfected with GPR40 (A9_GPR40) was used in IP accumulation assays. A9_GPR40 cells were plated in 96-well plates containing 20,000 cells/well in DMEM containing 10% FBS. After the cells attached to the well surface, the media was replaced with inositol free DMEM containing 10% dialyzed FBS and 1 μCi, mL ^3H-inositol and incubated for 16 hours. Compounds were diluted in HBSS/10 mM LiCl containing a desired amount of HSA and added directly to cells. Following 1 hour incubation at 37° C., the media was replaced with 100 μL of 20 mM formic acid to quench the reaction. 50 μL of the extract was then added to 100 μL of SPA beads, incubated overnight, and measured on a TopCount the following day.
# T1 sequence (O14842 whole entry): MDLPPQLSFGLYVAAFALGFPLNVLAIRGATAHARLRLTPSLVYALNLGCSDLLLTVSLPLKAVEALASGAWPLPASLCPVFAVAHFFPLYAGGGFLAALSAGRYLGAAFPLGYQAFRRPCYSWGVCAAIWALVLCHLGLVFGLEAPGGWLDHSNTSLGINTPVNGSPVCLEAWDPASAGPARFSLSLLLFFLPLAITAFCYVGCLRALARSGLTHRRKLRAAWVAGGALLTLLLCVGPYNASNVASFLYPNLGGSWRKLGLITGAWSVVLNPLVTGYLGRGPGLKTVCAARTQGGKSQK
smiles,measurement,setting,value
"CCCC(C)(C)c1cc(COc2cccc(C(C)CC(=O)O)c2)ccc1-c1cc(OC)ccc1F (single isomer, unassigned) [Example 64.11, (3R)-3-(3-(((2-(1,1-Dimethylbutyl)-2′-fluoro-5′-(methyloxy)-1,1′-biphenyl-4-yl)methyl)oxy)phenyl)butanoic acid or (3S)-3-(3-(((2-(1,1-dimethylbutyl)-2′-fluoro-5′-(methyloxy)-1,1′-biphenyl-4-yl)methyl)oxy)phenyl)butanoic acid]",EC50,[1],100 to 1000 nM
same,EC50,[2],100 to 1000 nM
"COc1ccc(F)c(-c2ccc(COc3cccc(C(C)CC(=O)O)c3)cc2C2=CCCCCC2)c1 (single isomer, unassigned) [Example 64.12, (3R)-3-(3-(((2-(1-Cyclohepten-1-yl)-2′-fluoro-5′-(methyloxy)-1,1′-biphenyl-4-yl)methyl)oxy)phenyl)butanoic acid or (3S)-3-(3-(((2-(1-cyclohepten-1-yl)-2′-fluoro-5′-(methyloxy)-1,1′-biphenyl-4-yl)methyl)oxy)phenyl)butanoic acid]",EC50,[1],100 to 1000 nM
same,EC50,[2],10 to 100 nM
"COc1ccc(F)c(-c2ccc(COc3cccc(C(C)CC(=O)O)c3)cc2C2=CCC(C(C)(C)C)CC2)c1 (single isomer, unassigned) [Example 64.13, (3R)-3-(3-(((2-(4-(1,1-Dimethylethyl)-1-cyclohexen-1-yl)-2′-fluoro-5′-(methyloxy)-1,1′-biphenyl-4-yl)methyl)oxy)phenyl)butanoic acid or (3S)-3-(3-(((2-(4-(1,1-dimethylethyl)-1-cyclohexen-1-yl)-2′-fluoro-5′-(methyloxy)-1,1′-biphenyl-4-yl)methyl)oxy)phenyl)butanoic acid]",EC50,[1],100 to 1000 nM
same,EC50,[2],10 to 100 nM
"CCCCCc1cc(COc2cccc(C(C)CC(=O)O)c2)ccc1-c1cc(OC)ccc1F (single isomer, unassigned) [Example 64.14, (3R)-3-(3-(((2′-Fluoro-5′-(methyloxy)-2-pentyl-1,1′-biphenyl-4-yl)methyl)oxy)phenyl)butanoic acid or (3S)-3-(3-(((2′-fluoro-5′-(methyloxy)-2-pentyl-1,1′-biphenyl-4-yl)methyl)oxy)phenyl)butanoic acid]",EC50,[1],100 to 1000 nM
same,EC50,[2],100 to 1000 nM
"COc1ccc(F)c(-c2ccc(COc3cccc(C(C)CC(=O)O)c3)cc2CCC2CCCCC2)c1 (single isomer, unassigned) [Example 64.15, (3R)-3-(3-(((2-(2-Cyclohexylethyl)-2′-fluoro-5′-(methyloxy)-1,1′-biphenyl-4-yl)methyl)oxy)phenyl)butanoic acid or (3S)-3-(3-(((2-(2-cyclohexylethyl)-2′-fluoro-5′-(methyloxy)-1,1′-biphenyl-4-yl)methyl)oxy)phenyl)butanoic acid]",EC50,[1],100 to 1000 nM
same,EC50,[2],10 to 100 nM
"COc1ccc(F)c(-c2ccc(COc3cccc([C@H](C)CC(=O)O)c3)cc2C23CC4CC(CC(C4)C2)C3)c1 (single isomer, unassigned) [Example 64.16, (3R)-3-(3-(((2′-Fluoro-5′-(methyloxy)-2-tricyclo[3.3.1.1˜3,7˜]dec-1-yl-1,1′-biphenyl-4-yl)methyl)oxy)phenyl)butanoic acid or (3S)-3-(3-(((2′-fluoro-5′-(methyloxy)-2-tricyclo[3.3.1.1˜3,7˜]dec-1-yl-1,1′-biphenyl-4-yl)methyl)oxy)phenyl)butanoic acid]",EC50,[1],100 to 1000 nM
same,EC50,[2],10 to 100 nM
"COc1ccc(F)c(-c2ccc(COc3cccc(C(C)CC(=O)O)c3)cc2C2CCCCCC2)c1 (single isomer, unassigned) [Example 64.17, (3R)-3-(3-(((2-Cycloheptyl-2′-fluoro-5′-(methyloxy)-1,1′-biphenyl-4-yl)methyl)oxy)phenyl)butanoic acid or (3S)-3-(3-(((2-cycloheptyl-2′-fluoro-5′-(methyloxy)-1,1′-biphenyl-4-yl)methyl)oxy)phenyl)butanoic acid]",EC50,[1],100 to 1000 nM
same,EC50,[2],10 to 100 nM
"COc1ccc(F)c(-c2ccc(COc3cccc(C(C)CC(=O)O)c3)cc2C2(C)CC2)c1 (single isomer, unassigned) [Example 64.18, (3R)-3-(3-(((2′-Fluoro-2-(1-methylcyclopropyl)-5′-(methyloxy)-1,1′-biphenyl-4-yl)methyl)oxy)phenyl)butanoic acid or (3S)-3-(3-(((2′-fluoro-2-(1-methylcyclopropyl)-5′-(methyloxy)-1,1′-biphenyl-4-yl)methyl)oxy)phenyl)butanoic acid]",EC50,[1],100 to 1000 nM
same,EC50,[2],100 to 1000 nM
"COc1ccc(F)c(-c2ccc(COc3cccc(C(C)CC(=O)O)c3)cc2C2=CCCC2)c1 (single isomer, unassigned) [Example 64.19, (3R)-3-(3-(((2-(1-Cyclopenten-1-yl)-2′-fluoro-5′-(methyloxy)-1,1′-biphenyl-4-yl)methyl)oxy)phenyl)butanoic acid or (3S)-3-(3-(((2-(1-cyclopenten-1-yl)-2′-fluoro-5′-(methyloxy)-1,1′-biphenyl-4-yl)methyl)oxy)phenyl)butanoic acid]",EC50,[1],100 to 1000 nM
same,EC50,[2],100 to 1000 nM
"COc1cccc(-c2ccc(COc3cccc(C(C)CC(=O)O)c3)cc2C2=CCCC2(C)C)c1 (single isomer, unassigned) [Example 64.20, (3R)-3-(3-(((2-(5,5-Dimethyl-1-cyclopenten-1-yl)-3′-(methyloxy)-1,1′-biphenyl-4-yl)methyl)oxy)phenyl)butanoic acid or (3S)-3-(3-(((2-(5,5-dimethyl-1-cyclopenten-1-yl)-3′-(methyloxy)-1,1′-biphenyl-4-yl)methyl)oxy)phenyl)butanoic acid]",EC50,[1],100 to 1000 nM
same,EC50,[2],10 to 100 nM
"COc1ccc(F)c(-c2ccc(COc3cccc(C(C)CC(=O)O)c3)cc2C2=CCCCC2)c1 (single isomer, unassigned) [Example 64.21, (3R)-3-(3-(((2-(1-Cyclohexen-1-yl)-2′-fluoro-5′-(methyloxy)-1,1′-biphenyl-4-yl)methyl)oxy)phenyl)butanoic acid or (3S)-3-(3-(((2-(1-cyclohexen-1-yl)-2′-fluoro-5′-(methyloxy)-1,1′-biphenyl-4-yl)methyl)oxy)phenyl)butanoic acid]",EC50,[1],100 to 1000 nM
same,EC50,[2],10 to 100 nM
"COc1ccc(F)c(-c2ccc(COc3cccc(C(C)CC(=O)O)c3)cc2C2CCCC2(C)C)c1 (single isomer, unassigned) [Example 64.22, (3R)-3-(3-(((2-(2,2-Dimethylcyclopentyl)-2′-fluoro-5′-(methyloxy)-1,1′-biphenyl-4-yl)methyl)oxy)phenyl)butanoic acid or (3S)-3-(3-(((2-(2,2-dimethylcyclopentyl)-2′-fluoro-5′-(methyloxy)-1,1′-biphenyl-4-yl)methyl)oxy)phenyl)butanoic acid]",EC50,[1],100 to 1000 nM
same,EC50,[2],10 to 100 nM
"CCC(CC(=O)O)c1cccc(OCc2ccc(-c3cc(OC)ccc3F)c(C3=CCCC3(C)C)c2)c1 (single isomer, unassigned) [Example 65.1, (3R)-3-(3-(((2-(5,5-Dimethyl-1-cyclopenten-1-yl)-2′-fluoro-5′-(methyloxy)-1,1′-biphenyl-4-yl)methyl)oxy)phenyl)pentanoic acid or (3S)-3-(3-(((2-(5,5-dimethyl-1-cyclopenten-1-yl)-2′-fluoro-5′-(methyloxy)-1,1′-biphenyl-4-yl)methyl)oxy)phenyl)pentanoic acid]",EC50,[1],100 to 1000 nM
same,EC50,[2],10 to 100 nM
"COc1ccc(F)c(-c2ccc(COc3cccc(C(CC(=O)O)C4CC4)c3)cc2C2CCCCCC2)c1 (single isomer, unassigned) [Example 66.2, (3S)-3-(3-(((2-Cycloheptyl-2′-fluoro-5′-(methyloxy)-1,1′-biphenyl-4-yl)methyl)oxy)phenyl)-3-cyclopropylpropanoic acid or (3R)-3-(3-(((2-cycloheptyl-2′-fluoro-5′-(methyloxy)-1,1′-biphenyl-4-yl)methyl)oxy)phenyl)-3-cyclopropylpropanoic acid]",EC50,[1],100 to 1000 nM
same,EC50,[2],10 to 100 nM
"COc1cccc(-c2ccc(COc3cccc(C(CC(=O)O)C4CC4)c3)cc2C2=CCCC2(C)C)c1 (single isomer, unassigned) [Example 66.3, (3S)-3-Cyclopropyl-3-(3-(((2-(5,5-dimethyl-1-cyclopenten-1-yl)-3′-(methyloxy)-1,1′-biphenyl-4-yl)methyl)oxy)phenyl)propanoic acid or (3R)-3-cyclopropyl-3-(3-(((2-(5,5-dimethyl-1-cyclopenten-1-yl)-3′-(methyloxy)-1,1′-biphenyl-4-yl)methyl)oxy)phenyl)propanoic acid]",Aequorin EC50,[1],+++/ ++++
same,EC50,[2],< 10 nM
